The Ki is a dissociation constant, usually derived from enzyme kinetics or from competition with a known ligand. What is called melting point is the temperature of the solid-liquid transition.

One data set concerns the target purified PARP protein (Homo sapiens, UniProt P09874). Briefly: PARP enzyme inhibition assay. The note with it: 20 nM purified PARP (5 nM for tight-binding inhibitors), 500 μM NAD+, 25° C.; several values in one cell = repeat determinations; read-out: Inhibition Constant Ki. It is filed as biochemical.
A further data set has as its system A549 cells. The data set can be described thus: Cytotoxicity potentiation assay. It is filed as cell-based. To be noted: test compound 0.4 μM, ratio of IC50 of topotecan alone to IC50 of topotecan with test compound.

purified PARP protein, sequence (P09874 whole entry): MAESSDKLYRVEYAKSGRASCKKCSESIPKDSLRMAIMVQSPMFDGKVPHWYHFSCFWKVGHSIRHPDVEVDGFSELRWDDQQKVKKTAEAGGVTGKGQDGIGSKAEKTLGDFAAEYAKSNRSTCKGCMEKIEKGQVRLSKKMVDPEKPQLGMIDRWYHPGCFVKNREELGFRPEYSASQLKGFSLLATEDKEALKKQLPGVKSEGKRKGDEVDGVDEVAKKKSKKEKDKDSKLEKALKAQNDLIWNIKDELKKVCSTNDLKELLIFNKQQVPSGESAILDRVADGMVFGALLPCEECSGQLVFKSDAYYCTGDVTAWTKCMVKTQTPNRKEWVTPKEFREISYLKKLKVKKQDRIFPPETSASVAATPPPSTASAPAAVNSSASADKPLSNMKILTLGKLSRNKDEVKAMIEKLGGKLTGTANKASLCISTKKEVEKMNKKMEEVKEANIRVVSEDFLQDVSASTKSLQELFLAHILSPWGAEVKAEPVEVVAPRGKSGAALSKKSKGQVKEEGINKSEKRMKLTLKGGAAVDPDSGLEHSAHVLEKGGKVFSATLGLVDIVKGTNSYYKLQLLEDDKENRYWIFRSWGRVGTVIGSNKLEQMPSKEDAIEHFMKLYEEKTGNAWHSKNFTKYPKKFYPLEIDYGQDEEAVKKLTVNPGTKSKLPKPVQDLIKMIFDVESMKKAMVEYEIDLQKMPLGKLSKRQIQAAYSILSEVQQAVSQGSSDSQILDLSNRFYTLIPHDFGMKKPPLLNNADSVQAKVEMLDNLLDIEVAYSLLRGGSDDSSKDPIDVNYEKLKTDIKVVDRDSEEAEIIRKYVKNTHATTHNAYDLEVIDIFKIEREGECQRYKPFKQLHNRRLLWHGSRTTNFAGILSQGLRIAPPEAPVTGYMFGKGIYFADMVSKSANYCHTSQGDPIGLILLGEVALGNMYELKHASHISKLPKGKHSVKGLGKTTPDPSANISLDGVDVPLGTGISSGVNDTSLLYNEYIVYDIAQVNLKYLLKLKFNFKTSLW

Take `O=C1NCCn2c(-c3ccc(C4CCNCC4)cc3)nc3cccc1c32` [Example 137, 1-(4-Piperidin-4-yl-phenyl)-8,9-dihydro-7H-2,7,9a-triaza-benzo[cd]azulen-6-one]: the melting point is > 192 °C (dec.). Besides, the Ki on purified PARP protein is 5.4 nM. Moreover, in the data set on A549 cells, the “Cytotoxicity Potentiation PF50” value amounted to 2.2.

Regarding `CN1CCC(c2ccc(-c3nc4cccc5c4n3CCNC5=O)cc2)CC1` [Example 141, 1-[4-(1-Methyl-piperidin-4-yl)-phenyl]-8,9-dihydro-7H-2,7,9a-triaza-benzo[cd]azulen-6-one], the melting point is > 240 °C (dec.). Moreover, the Ki on purified PARP protein turned out to be 5.5 nM. Moreover, in the data set with A549 cells, the “Cytotoxicity Potentiation PF50” value is on record as 2.3.

As to `O=C1NCCn2c(-c3ccc(C4CCCNC4)cc3)nc3cccc1c32` (stereo not drawn) [Example 142, 1-(4-Piperidin-3-yl-phenyl)-8,9-dihydro-7H-2,7,9a-triaza-benzo[cd]azulen-6-one], the melting point was > 230 °C (dec.). Further, the Ki on purified PARP protein is 3.8 nM. Moreover, the “Cytotoxicity Potentiation PF50” value in the data set with A549 cells is reported as 2.2.

`O=C1NCCn2c(-c3ccc(C4CCCN4)cc3)nc3cccc1c32` (stereo not drawn) [Example 148, 1-(4-Pyrrolidin-2-yl-phenyl)-8,9-dihydro-7H-2,7,9a-triaza-benzo[cd]azulen-6-one]: the melting point is 220 to 223 °C (dec.). Also, the Ki on purified PARP protein worked out at 2.8 nM. In addition, the “Cytotoxicity Potentiation PF50” value in the data set on A549 cells stood at 2.5.

In the case of `CN1CCCC1c1ccc(-c2nc3cccc4c3n2CCNC4=O)cc1` (stereo not drawn) [Example 149], the melting point was 235 to 238 °C (dec.). Moreover, the Ki on purified PARP protein was determined as 4.2 nM. Moreover, the “Cytotoxicity Potentiation PF50” value in the data set on A549 cells is 2.6.

On to `CN(C)Cc1ccc(-c2cc3cc(F)cc4c3n2CCNC4=O)cc1` [Example 170, 6-(4-Dimethylaminomethyl-phenyl)-9-fluoro-3,4-dihydro-2H-[1,4]diazepino[6,7,1-hi]indol-1-one], for which the melting point lay within 172 to 174 °C. Moreover, the Ki at purified PARP protein stood at 3.1 nM. In the data set on A549 cells, the “Cytotoxicity Potentiation PF50” value came out at 1.9.

Source of the values: patent US6548494B1, “Tricyclic inhibitors of poly(ADP-ribose) polymerases” (Agouron Pharmaceuticals, Inc., priority 1999, dated 2003).
